Reference: patent EP1881000A1, “Conjugates of 2-fluoro-2-deoxy-glucose and their uses as anti cancer agents” (INSTITUT NATIONAL DE LA SANTE ET DE LA RECHERCHE MEDICALE …, priority 2006, dated 2008)
“And” between values parts separate entries of the source, which are not always exact repeats. Equal values may be shown once.

Columns and labels:
[1] = tested on: CT-26 colon carcinoma; test: Antitumour activity in CT-26 colon carcinoma bearing mice, IP chemotherapy protocol; type: in vivo, BALB/c male mice; conditions: for tumour growth inhibition (CTW time-course): CT26 carcinoma, vs non-treated and vehicle-treated groups, p< 0.05; for LCK / Antitumour Efficacy / Survival Mt/Mc / Weight loss (% max) / antitumour activity according to the NCI criteria decisions: CT26 colon carcinoma; for antitumour activity according to the NCI criteria decisions: in words; for Life span of the animals: CT-26 colon carcinoma-bearing mice
Description: Drugs were dissolved in a mixture of dimethylacetamide (Sigma) and oleic macrogolglycerides (Labrafil® M1944Cs, Gattefossé) (10:90%, vol/vol).
It is performed in tumour-bearing mice following an IP chemotherapy protocol.
To establish CT-26 colon carcinoma model, 2.5 x 10^5 CT26 cells (Dr Iaiaih J.Filder of MDAnderson Cancer Center, University of Texas; in vitro doubling time of 20 hours) were suspended in 100 µL of phosphate buffer solution and injected into the subcutaneous tissue of the right flank of BALB/c male mice, 6-weeks-old (Charles River, France) on day zero.
For both molecules and both animal models, treatment was initiated eight days post tumour grafting, when the tumours had reached a measurable size, corresponding to a calculated tumour weight (CTW) of 40 and 70 mg for B16 and CT-26 models respectively.
Animals were then randomly divided in both treatment and control groups. […] Two dosages have been evaluated, MTD and 0.75 MTD
Mice were weighed and observed every two days over a 30-day -period to evaluate general clinical state. Length and width of tumours were measured every two days over a 30-day-period using a dedicated slide calliper.
The Calculated Tumour Weight (CTW) of each tumour was determined according to the formula: CTW(mg) = L × 1^2 /2 [formula] with L = length in mm and 1= width in mm.
Considering physiopathological features of the CT26 colon carcinoma model, mainly cachexy, drugs 21a and 40a, were assessed at the lowest dosage, i.e. 0.75 MTD administered at Day 8, Day 12, Day 16.
The reference treatment chlorambucil was given at the MTD dosage according to the same schedule.
For subcutaneously growing tumours, antitumour activity is often assessed by using the log10 cell kill (LCK) which is calculated from the following formula: LCK = T-C value in days/3.32 × Td [formula] T is the median time (in days) required for the treatment group tumours to reach a predetermined CTW (e.g. 1000 mg). C is the median time (in days) required for the control group tumours to reach the same CTW. Td is the tumour volume doubling time (in days) estimated from the best fit straight line from a log-linear growth plot of the control group tumours in exponential growth.
An increase in life span was defined by the ratio of the median survival of drug-treated mice (Mt) versus controls (Mc): a survival Mt/Mc equal or higher than 125 % was sought
Mean weight loss of the group was used to evaluate treatment side effects. A mean body weight loss of greater 20% was considered to indicate an excessively toxic dosage.

[2] = tested on: M4Beu, a human melanoma cell line; test: In vitro cytotoxicity assay (resazurin reduction test); type: cell-based; conditions: 48-h continuous drug exposure
Text: (§1) Normal human fibroblasts were purchased from Promocell (Heidelberg, Germany). This frozen culture was obtained from foreskin waste and the cells used in this work were from the seventh to twelfth passage of the culture. M4Beu, a human melanoma cell line, was established in the laboratory of Dr. J. F. Doré (INSERM, Unit 218, Lyon, France) from metastatic biopsy specimens and maintained in cell culture for almost 20 years in our lab. Breast cancer adenocarcinoma MCF 7, prostatic adenocarcinoma PC 3, colon adenocarcinoma DLD-1, lung non-small cell carcinoma A 549, ovary adenocarcinoma PA1 human cell lines and L 929 murine cell line were purchased from the European Collection of Cell Cultures (ECACC; Salisbury, United Kingdom). Murine Melanoma B16 was purchased from American Type of Culture Collection (ATCC, Manassas, USA) and murine colon carcinoma cell line CT-26 was obtained from Dr I. J. Fidler (University of Texas M.D. Anderson Cancer Center, Houston).
(§2) Stock cell cultures were maintained as monolayers in 75cm^2 culture flasks in Glutamax Eagle's minimum essential medium with Earle's salts (MEM; Gibco BRL, Paisley, UK) supplemented with 10% fetal calf serum (Sigma, St Quentin Fallavier, France), 1 mM sodium pyruvate (Gibco), 1X vitamins solution (Gibco), 1X non essential amino acids solution (Gibco) and 4 µg/ml of gentamicine (Gibco). Cells were grown at 37°C in a humidified atmosphere containing 5% CO2.
(§3) Cells were plated at a density of 5 x 10^3 cells per well in 96-well microplates (Nunclon™, Nunc, Roskilde, Denmark) in 150 µl of culture medium and were allowed to adhere for 16 h before treatment with the compound tested.
(§4) Stock solution of each compound was prepared in dimethylsulfoxide (DMSO) and kept at -20°C. until use. The percentage of DMSO was kept at 0.5% (v/v) whichever the concentration tested. […] Fifty microliters of a 4X solution in MEM was then added and a 48-h continuous drug exposure protocol was used. Then, the cytotoxic effect of compounds on tumour cells was tested by using Resazurin reduction test.
(§5) Resazurin was identified as the Alamar blue dye (O'Brien, J. et al.; European Journal of Biochemistry, 267, 5421-6, (2000)). The resazurin reduction test (RRT) was carried out according to the protocol described here. Briefly, plates were rinsed by 200 µl PBS (37° C, Gibco) using a multichannel dispenser (Labsystems, Helsinki, Finland) and emptied by overturning on absorbent toweling. Then, 150 µl of a 25 µg/ml solution of resazurin in MEM without SVF nor Phenol red was added in each well. The plates were incubated 1 h at 37° C. in an humidified atmosphere with 5% of CO2 for fluorescence development by living cells. Fluorescence was then measured on the automated 96-well plate reader Fluoroskan Ascent FL™ (Labsystems) using an excitation wavelength of 530 nm and an emission one of 590 nm.
(§6) Cytotoxic activity has been tested against the six human tumour cell lines breast adenocarcinoma MCF-7, colon adenocarcinoma DLD-1, ovary adenocarcinoma PA1, prostatic adenocarcinoma PC3, lung carcinoma A549, melanoma M4Beu and a primary culture of human fibroblasts.

[3] = tested on: Breast cancer adenocarcinoma MCF 7; test: as above; type: cell-based; conditions: Homo sapiens; MCF7; 48-h continuous drug exposure
Text: as §1, §2, §3, §4, §5, §6

[4] = tested on: lung non-small cell carcinoma A 549; test: as above; type: cell-based; conditions: Homo sapiens; A549; 48-h continuous drug exposure
Text: as §1, §2, §3, §4, §5, §6

[5] = tested on: Normal human fibroblasts; test: as above; type: cell-based; conditions: Fibroblast, 48-h continuous drug exposure
Text: as §1, §2, §3, §4, §5, §6

[6] = tested on: ovary adenocarcinoma PA1; test: as above; type: cell-based; conditions: Homo sapiens, 48-h continuous drug exposure
Text: as §1, §2, §3, §4, §5, §6

[7] = tested on: prostatic adenocarcinoma PC 3; test: as above; type: cell-based; conditions: Homo sapiens; PC3; 48-h continuous drug exposure
Text: as §1, §2, §3, §4, §5, §6

[8] = tested on: colon adenocarcinoma DLD-1; test: as above; type: cell-based; conditions: Homo sapiens, DLD1, 48-h continuous drug exposure
Text: as §1, §2, §3, §4, §5, §6

[9] = tested on: Murine Melanoma B16; test: as above; type: cell-based; conditions: Mus musculus, 48-h continuous drug exposure
Text: as §1, §2, §3, §4, §5

[10] = tested on: murine colon carcinoma cell line CT-26; test: as above; type: cell-based; conditions: Mus musculus; CT26; 48-h continuous drug exposure
Text: as §1, §2, §3, §4, §5

[11] = 0,75 MTD IP at Day 8, 12 and 16

CC(=O)OC[C@H]1O[C@@H](NC(=O)CNC(=O)CCCc2ccc(N(CCCl)CCCl)cc2)[C@H](F)[C@@H](OC(C)=O)[C@@H]1OC(C)=O [Compound 21a, N-[2-(3,4,6-tri-O-acetyl-2-deoxy-2-fluoro-β-D-glucopyranosylamino)-2-oxoethyl]-4-{4-[bis(2-chloroethyl)amino]phenyl}butanamide]
tumour growth inhibition (CTW time-course) [1, 11]: significant tumour growth inhibition | LCK ([1]; dosage not stated): around 1.1 | Antitumour Efficacy ([1]; 75% MTD, IP D8, D12, D16): + (0.7 < LCK < 1.2 active drug (+)) | LCK ([1]; 75% MTD, IP D8, D12, D16): 1.10 | Survival Mt/Mc ([1]; 75% MTD, IP D8, D12, D16): 1.5 | Weight loss (% max) ([1]; 75% MTD, IP D8, D12, D16): 17.1% | antitumour activity according to the NCI criteria decisions [1]: active | Life span of the animals [1]: increased | IC50 [2]: 6.8 ± 0.9 µM | IC50 [3]: 8 ± 2 µM | IC50 [4]: 5 ± 2 µM | IC50 [5]: 4.1 ± 0.1 µM | IC50 [6]: 1 ± 0.1 µM | IC50 [7]: 10 ± 2 µM | IC50 [8]: 4 ± 3 µM | IC50 [9]: 6.4 ± 0.6 µM | IC50 [10]: 7 ± 1 µM

CC(=O)OC[C@H]1O[C@@H](Oc2ccc(NC(=O)CNC(=O)CCCc3ccc(N(CCCl)CCCl)cc3)cc2)[C@H](F)[C@@H](OC(C)=O)[C@@H]1OC(C)=O [Compound 40a, N-{2-[4-(3,4,6-tri-O-acetyl-2-deoxy-2-fluoro-β-D-glucopyranosyloxy)phenyl]amino-2-oxoethyl}-4-{4-[bis(2-chloroethyl)amino]phenyl}butanamide]
tumour growth inhibition (CTW time-course) [1, 11]: significant tumour growth inhibition | LCK ([1]; dosage not stated): around 1.5 | Antitumour Efficacy ([1]; 75% MTD, IP D8, D12, D16): ++ (1.7 < LCK < 1.9 highly active drug (++)) | LCK ([1]; 75% MTD, IP D8, D12, D16): 1.52 | Survival Mt/Mc ([1]; 75% MTD, IP D8, D12, D16): 1.29 | Weight loss (% max) ([1]; 75% MTD, IP D8, D12, D16): 21% and 21.5% | antitumour activity according to the NCI criteria decisions [1]: highly active | Life span of the animals [1]: increased | IC50 [2]: 15 ± 6 µM | IC50 [4]: 10 ± 5 µM | IC50 [5]: 17 ± 6 µM | IC50 [6]: 1.5 ± 0.5 µM | IC50 [7]: 7 ± 2 µM | IC50 [8]: 6 ± 2 µM | IC50 [9]: 10 ± 0.5 µM | IC50 [10]: 4.3 ± 0.2 µM

O=C(O)CCCc1ccc(N(CCCl)CCCl)cc1 [chlorambucil, reference compound]
tumour growth inhibition (CTW time-course) ([1]; MTD dosage, same schedule): significant tumour growth inhibition | LCK ([1]; dosage not stated): 0.79 | LCK ([1]; MTD, IP D8, D12, D16): 0.79 | Survival Mt/Mc ([1]; MTD, IP D8, D12, D16): 0.74 | Weight loss (% max) ([1]; MTD, IP D8, D12, D16): 13.9% | antitumour activity according to the NCI criteria decisions [1]: discrete antitumour activity | antitumour activity according to the NCI criteria decisions ([1]; listed as Chlorambucil): failed in exhibiting any antitumour activity | Life span of the animals [1]: not | IC50 [2]: > 100 µM | IC50 [3]: > 100 µM | IC50 [4]: 43 ± 14 µM | IC50 [5]: 99 ± 2 µM | IC50 [6]: 2.8 ± 0.4 µM | IC50 [8]: 47 ± 17 µM | IC50 [9]: 42.6 ± 9.5 µM | IC50 [10]: 6.3 ± 0.4 µM
